One assay relates to Balb/C heart allografts. Kind of assay: Balb/C heart transplantation into skin-sensitized B6 hosts after peptide vaccination. Particulars: for heart graft survival: compared to adjuvant alone; for graft pathology (C4d deposition, immune cell infiltration): heart allografts; for donor-specific antibody (DSA): heart graft / skin-sensitized recipients.
Assay [1] relates to I-Ab/Ova323-339 Tet+ CD4 cells. Kind of assay: FL9-68 vaccination followed by Ova323-339/CFA immunization. The assay is classed as in vivo, mouse. On the procedure: FIG. 58(E) CD45.1^+ B6 mice that were vaccinated with FL9-68 in CFA or CFA alone on day 0 were immunized with Ova323-339 peptide in CFA on day 6. The frequency of I-Ab/Ova323-339 Tet^+ CD4 cells in activated (CD44^+) CD4 cells in the spleen and dLN was analyzed on day 14.

For another assay, the system named is MCMV. Kind of assay: Murine MCMV infection model with FL9-68 vaccination. The assay is classed as in vivo, mouse. The procedure:
FIG. 10A-C provides a graphical representation showing FL9-68-dependent mobilization of CD8 Treg dampens autoantibody responses during MCMV infection. WT B6 mice were infected with MCMV (2×10^5 pfu) and vaccinated with (100 ug/dose) FL9-68 in IFA or IFA alone at day 0, 8 and 12. Mice were bled at day 3, 10 and 18 and levels of anti-dsDNA Ab (panel A), viral titer (panel B) and frequency of activated CD8 Treg (panel C, Ly49+NKG2D+CD8) are shown.

Another assay relates to EL4 tumor cells (Qa-1+). The assay can be described thus: EL4 tumor growth in B6 mice. It is filed as in vivo, mouse. To be noted: EL4 (Qa-1 WT) in B6 mice; vs isotype control / IFA alone; listed as FL9-68 SA. On the procedure:
FIG. 9A-B provides a graphical representation showing that the depletion of CD8 Treg enhances anti-tumor immune responses. WT B6 mice were inoculated with 2×10^5 EL4 (Qa-1 WT) orEL4-Qa-1 KO cells. Mice received EL4 WT or EL4 Qa-1 KO cells were treated with four different conditions: 1) PBS/IFA+ isotype control Ab (mIgG1), 2) PBS/IFA+ anti-Ly49F Ab, 3) PBS/IFA+anti-Qa-1 Ab and 4) FL9.68/IFA+isotype Ab (mIgG1). 100 ug of FL9.68 peptide (day 0 and day 10), 50 ug of anti-Ly49F Ab and 100 ug of anti-Qa-1 Ab (day 0, 3 and 6) were injected respectively. A) Status of Ly49+CD8 cells in the blood at day 3 and 6 after tumor induction (panel A). Tumor growth in mice inoculated with EL4 WT (left) andEL4 Qa-1 KO (right) tumor cells until day 7. […] This effect was not observed in mice inoculated with EL4-Qa-1KO tumor cells (panel B).

Values joined by “and” are separate entries in the source; they are usually repeats but may differ in a detail not shown here. Equal values may be shown once. “Also recorded” adds a separate entry of the source.

The values below come from patent US20240415919A1, “COMPOSITIONS AND METHODS FOR TREATMENT OF AUTOIMMUNE DISORDERS AND CANCER” (Dana-Farber Cancer Institute, Inc., priority 2021, published 2024).

Experimental for Balb/C heart allografts: After selecting FL9-SA, we performed BALB/c to B6 skin transplantation with or without Hsp60p2l6 and FL9-SA, followed by heart transplantation.
B6 mice were immunized i.p with 50 μg FL9-68/IFA or with IFA alone at day 0 and 7 followed by a BALB/C→B6 skin transplant at day 10. FL9-68/IFA or IFA immunization was repeated on days 10, 13 and 16. At day 27, fully vascularized Balb/C hearts were transplanted into the abdominal cavity of B6 mice using microsurgical techniques, as previously described (Cai et al., 2016). Heart graft survival was determined by monitoring palpable heart beating. At day X after skin sensitization, levels of FL9 T cells, Tfh, GC B and plasma cells in dLNs were analyzed by flowcytometry. Serum was collected from the heart graft recipient B6 mice that were either immunized with FL9-68/IFA or IFA alone at day 16. […] Histological analysis of heart grafts was performed by InvivoEx company using anti-C4d Ab (Hycult Biotech) and Vector Blue Alkaline Phosphatase Substrate Kit (Vector Laboratories).
B6 mice were immunized i.p with 50 μg FL9-68-Adjuvant (IFA or AddaVax™) or Adjuvant alone at day 0 and 7 followed by a BALB/C→B6 skin transplant at day 10. FL9-68-Adj or Adj immunization was repeated on days 10, 13 and 16. At day 27, fully vascularized Balb/C hearts were transplanted into the abdominal cavity of B6 mice using microsurgical techniques, as previously described^36. Heart graft survival was determined by monitoring palpable heart beating. At day 16 after skin sensitization, levels of FL9 T cells, Tfh, GC B and plasma cells in dLNs were analyzed by flowcytometry. Serum was collected from the heart graft recipient B6 mice that were either immunized with FL9-68/IFA or IFA alone at day 16. […] Histological analysis of heart grafts was performed by InvivoEx company using anti-C4d Ab (Hycult Biotech) and Vector Blue Alkaline Phosphatase Substrate Kit (Vector Laboratories).

Regarding “FYAEATLML [FL9-68, FL9 peptide variant containing a P→L substitution at pos 7; superagonist for CD8 Treg]”, the “increase in FL9-specific CD8 cells within the Ly49+ CD8 T cell pool” value with Balb/C heart allografts (B6 mice bearing Balb/C skin allograft) is reported as 4-5 fold. Besides, in the assay with Balb/C heart allografts, the heart graft survival entry is on record as “significantly prolonged graft survival times; also recorded: promotes graft survival”; the “graft pathology (C4d deposition, immune cell infiltration)” value is on record as “markedly diminished graft pathology; also recorded: inhibits graft tissue injury”; the “donor-specific antibody (DSA)” value is on record as “decrease of donor specific Ab (DSA) generation; also recorded: reduced donor-specific antibody (DSA) responses; also recorded: inhibits production of DSA”. Moreover, the heart graft survival result in the assay on Balb/C heart allografts (listed as SA peptide) is listed as “significantly prolonged graft survival”. Besides, in the assay with Balb/C heart allografts (listed as FL9 SA peptide), the “graft pathology (C4d deposition, immune cell infiltration)” value is given as “maintenance of tissue integrity” and the “donor-specific antibody (DSA)” value is reported as “reduced generation of donor specific antibodies”. The “GC response: Tfh, GC B and plasma cells” value in the assay on Balb/C heart allografts (heart graft recipients, vs IFA alone) is “significant reduction of these cells; also recorded: decreased Tfh, GC B and plasma cell formation; also recorded: significantly reduced GC responses; also recorded: inhibition of GC Ab response”. The “alloreactive activated CD4 cells” value with Balb/C heart allografts (recipient CD4 cells co-incubated with irradiated donor splenocytes) is recorded as “decrease in alloreactive activated CD4 cells”. Besides, in the assay with Balb/C heart allografts (reduction in Tfh and mature B cells during sensitization, listed as FL9-SA), the “efficacy relative to Hsp60p216” value is recorded as “substantially more efficacious than Hsp60p2l6”. The “inhibition of the response of I-Ab/Ova323-339 tet+ CD4 cells” value in assay [1] (FL9-68 in CFA day 0, Ova323-339/CFA day 6, analysis day 14) was 50% and > 50%. Moreover, the “numbers or percent of non-specifically activated CD4 cells” value in assay [1] (same experiment as E6) was “did not reduce the numbers or percent of non-specifically activated CD4 cells”. In addition, the “NKG2D+Ly49+ CD8 T cells (activated CD8 Treg)” value in the assay with MCMV (mouse, in vivo) is “increase of NKG2D+Ly49^+ CD8 T cells”. Further, the “production of anti-dsDNA Ab” value with MCMV (vaccination at days 0, 8 and 12 after viral infection) is listed as “significantly reduced production of anti-dsDNA Ab”. For the same sequence, the EL4 tumor growth result in the assay on EL4 tumor cells (Qa-1+) was “facilitated tumor growth”.
